Converted amounts (≈) assume the structure as drawn.
Assays:
Assay type in all cases: functional
Bacillus subtilis [1] = experiment: Antibacterial activity against Bacillus subtilis ATCC 6633 assessed as growth inhibition after 24 hr; settings: ATCC 6633, 24 h
Escherichia coli [2] = experiment: Antibacterial activity against Escherichia coli ATCC 11775 assessed as growth inhibition after 24 hr by two-fold serial dilution method; settings: ATCC 11775, 24 h
Escherichia coli [3] = experiment: Antibacterial activity against Escherichia coli ATCC 11775 assessed as diamater of growth inhibition zone after 24 hr by agar cup diffusion method
Candida albicans [4] = experiment: Antifungal activity against Candida albicans DSM 70014 assessed as growth inhibition after 48 hr by two-fold serial dilution method; settings: DSM 70014, 48 h
Bacillus subtilis [5] = experiment: Antibacterial activity against Bacillus subtilis ATCC 6633 assessed as growth inhibition after 24 hr by two fold serial dilution method; settings: ATCC 6633, 24 h
Pseudomonas aeruginosa [6] = experiment: Antibacterial activity against Pseudomonas aeruginosa ATCC 10145 assessed as growth inhibition after 24 hr by two-fold serial dilution method; settings: ATCC 10145, 24 h
Staphylococcus aureus [7] = experiment: Antibacterial activity against Staphylococcus aureus DSM 1104 assessed as diamater of growth inhibition zone after 24 hr by agar cup diffusion method
Staphylococcus aureus [8] = experiment: Antibacterial activity against Staphylococcus aureus DSM 1104 assessed as growth inhibition after 24 hr; settings: DSM 1104, 24 h
Escherichia coli [9] = experiment: Antibacterial activity against Escherichia coli ATCC 11775 assessed as growth inhibition after 24 hr; settings: ATCC 11775, 24 h
Candida albicans [10] = experiment: Antifungal activity against Candida albicans DSM 70014 assessed as diamater of growth inhibition zone after 48 hr by agar cup diffusion method
Staphylococcus aureus [11] = experiment: Antibacterial activity against Staphylococcus aureus DSM 1104 assessed as growth inhibition after 24 hr by two fold serial dilution method; settings: DSM 1104, 24 h
Pseudomonas aeruginosa [12] = experiment: Antibacterial activity against Pseudomonas aeruginosa ATCC 10145 assessed as growth inhibition after 24 hr; settings: ATCC 10145, 24 h
Bacillus subtilis [13] = experiment: Antibacterial activity against Bacillus subtilis ATCC 6633 assessed as diamater of growth inhibition zone after 24 hr by agar cup diffusion method
Candida albicans [14] = experiment: Antifungal activity against Candida albicans DSM 70014 assessed as growth inhibition after 48 hr; settings: DSM 70014, 48 h
Pseudomonas aeruginosa [15] = experiment: Antibacterial activity against Pseudomonas aeruginosa ATCC 10145 assessed as diamater of growth inhibition zone after 24 hr by agar cup diffusion method

Compound	MBC (Bacillus subtilis [1])	MIC (Escherichia coli [2])	diameter of the inhibition zone (DIZ) (Escherichia coli [3])	MIC (Candida albicans [4])	MIC (Bacillus subtilis [5])	MIC (Pseudomonas aeruginosa [6])	diameter of the inhibition zone (DIZ) (Staphylococcus aureus [7])	MBC (Staphylococcus aureus [8])	MBC (Escherichia coli [9])	diameter of the inhibition zone (DIZ) (Candida albicans [10])	MIC (Staphylococcus aureus [11])	MBC (Pseudomonas aeruginosa [12])	diameter of the inhibition zone (DIZ) (Bacillus subtilis [13])	MFC (Candida albicans [14])	diameter of the inhibition zone (DIZ) (Pseudomonas aeruginosa [15])
COc1ccc(/C=N/N=c2\scc(-c3cc(O)ccc3O)n2-c2ccc(Cl)cc2)cc1O	100 mg/L (≈ 214 µM)	100 mg/L (≈ 214 µM)	13 mm	25 mg/L (≈ 53.4 µM)	50 mg/L (≈ 107 µM)	100 mg/L (≈ 214 µM)	14 mm	50 mg/L (≈ 107 µM)	100 mg/L (≈ 214 µM)	12 mm	25 mg/L (≈ 53.4 µM)	100 mg/L (≈ 214 µM)	14 mm	50 mg/L (≈ 107 µM)	14 mm
COc1ccc(/C=N/N=c2\scc(C3=CC(=O)C=CC3=O)n2-c2ccccc2)cc1	50 mg/L (≈ 120 µM)	25 mg/L (≈ 60.2 µM)	16 mm	50 mg/L (≈ 120 µM)	50 mg/L (≈ 120 µM)	50 mg/L (≈ 120 µM)	15 mm	50 mg/L (≈ 120 µM)	50 mg/L (≈ 120 µM)	15 mm	50 mg/L (≈ 120 µM)	50 mg/L (≈ 120 µM)	15 mm	50 mg/L (≈ 120 µM)	15 mm
COc1ccc(OC)c(/C=N/N=c2\scc(C3=CC(=O)C=CC3=O)n2-c2ccccc2)c1	50 mg/L (≈ 112 µM)	50 mg/L (≈ 112 µM)	14 mm	50 mg/L (≈ 112 µM)	50 mg/L (≈ 112 µM)	50 mg/L (≈ 112 µM)	14 mm	50 mg/L (≈ 112 µM)	50 mg/L (≈ 112 µM)	15 mm	50 mg/L (≈ 112 µM)	50 mg/L (≈ 112 µM)	15 mm	50 mg/L (≈ 112 µM)	14 mm
COc1cc(/C=N/N=c2\scc(C3=CC(=O)C=CC3=O)n2-c2ccccc2)ccc1O	100 mg/L (≈ 232 µM)	100 mg/L (≈ 232 µM)	15 mm	25 mg/L (≈ 57.9 µM)	50 mg/L (≈ 116 µM)	100 mg/L (≈ 232 µM)	15 mm	50 mg/L (≈ 116 µM)	100 mg/L (≈ 232 µM)	12 mm	25 mg/L (≈ 57.9 µM)	100 mg/L (≈ 232 µM)	15 mm	50 mg/L (≈ 116 µM)	14 mm
COc1ccc(/C=N/N=c2\scc(C3=CC(=O)C=CC3=O)n2-c2ccccc2)cc1O	100 mg/L (≈ 232 µM)	50 mg/L (≈ 116 µM)	14 mm	100 mg/L (≈ 232 µM)	100 mg/L (≈ 232 µM)	100 mg/L (≈ 232 µM)	14 mm	50 mg/L (≈ 116 µM)	50 mg/L (≈ 116 µM)	14 mm	50 mg/L (≈ 116 µM)	100 mg/L (≈ 232 µM)	15 mm	100 mg/L (≈ 232 µM)	16 mm
COc1ccc(OC)c(/C=N/N=c2\scc(C3=CC(=O)C=CC3=O)n2-c2ccc(C)cc2)c1	25 mg/L (≈ 54.4 µM)	25 mg/L (≈ 54.4 µM)	14 mm	25 mg/L (≈ 54.4 µM)	12.5 mg/L (≈ 27.2 µM)	25 mg/L (≈ 54.4 µM)	16 mm	25 mg/L (≈ 54.4 µM)	50 mg/L (≈ 109 µM)	13 mm	12.5 mg/L (≈ 27.2 µM)	50 mg/L (≈ 109 µM)	15 mm	50 mg/L (≈ 109 µM)	14 mm
COc1cc(/C=N/N=c2\scc(C3=CC(=O)C=CC3=O)n2-c2ccc(C)cc2)ccc1O	100 mg/L (≈ 224 µM)	50 mg/L (≈ 112 µM)	15 mm	50 mg/L (≈ 112 µM)	100 mg/L (≈ 224 µM)	100 mg/L (≈ 224 µM)	14 mm	50 mg/L (≈ 112 µM)	50 mg/L (≈ 112 µM)	15 mm	25 mg/L (≈ 56.1 µM)	100 mg/L (≈ 224 µM)	15 mm	50 mg/L (≈ 112 µM)	15 mm
COc1ccc(/C=N/N=c2\scc(C3=CC(=O)C=CC3=O)n2-c2ccc(C)cc2)cc1O	50 mg/L (≈ 112 µM)	50 mg/L (≈ 112 µM)	14 mm	50 mg/L (≈ 112 µM)	50 mg/L (≈ 112 µM)	50 mg/L (≈ 112 µM)	15 mm	100 mg/L (≈ 224 µM)	50 mg/L (≈ 112 µM)	15 mm	100 mg/L (≈ 224 µM)	50 mg/L (≈ 112 µM)	14 mm	100 mg/L (≈ 224 µM)	14 mm
COc1ccc(/C=N/N=c2\scc(C3=CC(=O)C=CC3=O)n2-c2ccc(Cl)cc2)cc1	100 mg/L (≈ 222 µM)	100 mg/L (≈ 222 µM)	16 mm	100 mg/L (≈ 222 µM)	100 mg/L (≈ 222 µM)	100 mg/L (≈ 222 µM)	14 mm	100 mg/L (≈ 222 µM)	100 mg/L (≈ 222 µM)	14 mm	100 mg/L (≈ 222 µM)	100 mg/L (≈ 222 µM)	15 mm	100 mg/L (≈ 222 µM)	16 mm
COc1ccc(OC)c(/C=N/N=c2\scc(C3=CC(=O)C=CC3=O)n2-c2ccc(Cl)cc2)c1	100 mg/L (≈ 208 µM)	100 mg/L (≈ 208 µM)	13 mm	50 mg/L (≈ 104 µM)	100 mg/L (≈ 208 µM)	100 mg/L (≈ 208 µM)	14 mm	50 mg/L (≈ 104 µM)	100 mg/L (≈ 208 µM)	14 mm	25 mg/L (≈ 52.1 µM)	100 mg/L (≈ 208 µM)	14 mm	100 mg/L (≈ 208 µM)	16 mm
COc1cc(/C=N/N=c2\scc(C3=CC(=O)C=CC3=O)n2-c2ccc(Cl)cc2)ccc1O	100 mg/L (≈ 215 µM)	100 mg/L (≈ 215 µM)	16 mm	50 mg/L (≈ 107 µM)	100 mg/L (≈ 215 µM)	50 mg/L (≈ 107 µM)	16 mm	100 mg/L (≈ 215 µM)	100 mg/L (≈ 215 µM)	15 mm	100 mg/L (≈ 215 µM)	100 mg/L (≈ 215 µM)	14 mm	50 mg/L (≈ 107 µM)	15 mm
COc1ccc(/C=N/N=c2\scc(C3=CC(=O)C=CC3=O)n2-c2ccc(Cl)cc2)cc1O	50 mg/L (≈ 107 µM)	25 mg/L (≈ 53.7 µM)	14 mm	12.5 mg/L (≈ 26.8 µM)	25 mg/L (≈ 53.7 µM)	50 mg/L (≈ 107 µM)	13 mm	50 mg/L (≈ 107 µM)	50 mg/L (≈ 107 µM)	15 mm	50 mg/L (≈ 107 µM)	50 mg/L (≈ 107 µM)	14 mm	25 mg/L (≈ 53.7 µM)	14 mm
COc1cc(/C=N/N=c2\scc(-c3cc(O)ccc3O)n2-c2ccc(C)cc2)ccc1O	50 mg/L (≈ 112 µM)	50 mg/L (≈ 112 µM)	14 mm	50 mg/L (≈ 112 µM)	50 mg/L (≈ 112 µM)	50 mg/L (≈ 112 µM)	15 mm	50 mg/L (≈ 112 µM)	100 mg/L (≈ 223 µM)	12 mm	25 mg/L (≈ 55.9 µM)	100 mg/L (≈ 223 µM)	15 mm	50 mg/L (≈ 112 µM)	16 mm
COc1ccc(/C=N/N=c2\scc(-c3cc(O)ccc3O)n2-c2ccc(Cl)cc2)cc1	50 mg/L (≈ 111 µM)	25 mg/L (≈ 55.3 µM)	14 mm	50 mg/L (≈ 111 µM)	50 mg/L (≈ 111 µM)	50 mg/L (≈ 111 µM)	15 mm	100 mg/L (≈ 221 µM)	50 mg/L (≈ 111 µM)	15 mm	100 mg/L (≈ 221 µM)	50 mg/L (≈ 111 µM)	14 mm	50 mg/L (≈ 111 µM)	12 mm
COc1ccc(OC)c(/C=N/N=c2\scc(-c3cc(O)ccc3O)n2-c2ccc(Cl)cc2)c1	50 mg/L (≈ 104 µM)	25 mg/L (≈ 51.9 µM)	18 mm	50 mg/L (≈ 104 µM)	50 mg/L (≈ 104 µM)	50 mg/L (≈ 104 µM)	13 mm	100 mg/L (≈ 207 µM)	50 mg/L (≈ 104 µM)	13 mm	50 mg/L (≈ 104 µM)	50 mg/L (≈ 104 µM)	15 mm	100 mg/L (≈ 207 µM)	16 mm
COc1cc(/C=N/N=c2\scc(-c3cc(O)ccc3O)n2-c2ccc(Cl)cc2)ccc1O	50 mg/L (≈ 107 µM)	100 mg/L (≈ 214 µM)	15 mm	100 mg/L (≈ 214 µM)	50 mg/L (≈ 107 µM)	100 mg/L (≈ 214 µM)	16 mm	50 mg/L (≈ 107 µM)	100 mg/L (≈ 214 µM)	14 mm	50 mg/L (≈ 107 µM)	100 mg/L (≈ 214 µM)	16 mm	100 mg/L (≈ 214 µM)	14 mm
CC1(C)S[C@@H]2[C@H](NC(=O)[C@H](N)c3ccccc3)C(=O)N2[C@H]1C(=O)O.O.O.O [AMPICILLIN TRIHYDRATE]		10 mg/L			12.5 mg/L	50 mg/L					5 mg/L				
Clc1ccccc1C(c1ccccc1)(c1ccccc1)n1ccnc1 [CLOTRIMAZOLE]				5 mg/L (≈ 14.5 µM)											

Source: ChEMBL document CHEMBL3044795, “Synthesis and biological evaluation of novel benzoquinones as potential antimicrobial agents” (2013)
